Measurements as given in patent US10106526B2, “Inhibitors of cyclin-dependent kinase 7 (CDK7)” (SYROS PHARMACEUTICALS, INC., priority 2014, dated 2018).
Structures can show the parent of a compound that is named as a salt.

Key:
CDK7 = molecular target: T1, CDK7 (Homo sapiens, UniProt P50613); test: CDK7 kinase activity, Adapta kinase assay (Life Technologies); format: biochemical; settings: Adapta kinase assay at Life Technologies; 10 μM down to 0.514 nM, 3-fold serial dilutions; read-out: CDK7 Inhibition (IC50)
T1 construct: purchased Life Technologies (Adapta kinase assay service)
Protocol: Compounds of the invention were assayed for CDK7 activity at Life Technologies™ (Grand Island, N.Y.) using their commercially available Adapta® kinase assay services. Compounds were tested at concentrations ranging from 10 μM down to 0.514 nM in a series of 3-fold serial dilutions. Details of these assays, including substrates used, are available on the Life Technologies web site (http://www.lifetechnologies.com/us/en/home/life-science/drug-discovery/target-and-lead-identification-and-validation/kinasebiology/kinase-activity-assays.html).

Jurkat cells = test: Inhibition of proliferation of Jurkat cells (CellTiter-Glo, 72 hour); format: cell-based, human; settings: 10 μM to 316 pM
Protocol: Jurkat cells are a cell line established from a human T cell leukemia. Representative compounds of the invention were tested at different concentrations (from 10 μM to 316 pM; 0.5 log serial dilutions) for their ability to inhibit the proliferation of Jurkat cells. Known CDK inhibitors flavopiridol and triptolide were used as positive controls. Cells were grown in RPMI 1640+10% FBS+1% Glutamax. The cells were supplemented with FBS (Life Technologies) and 100 U·mL^− penicillin, 100 μg·mL^− streptomycin (Invitrogen) and cultured at 37° C. in a humidified chamber in the presence of 5% CO2. Proliferation assays were conducted over a 72 hour time period. CellTiter-Glo® (Promega Corporation, Madison, Wis. USA) was used to assess the anti-proliferative effects of the compounds following manufacturer's directions and utilizing the reagents supplied with the CellTiter-Glo® kit. In this table, “A” represents an IC50 of less than 500 nM; “B” an IC50 of between 500 nM and 5 μM; and “C” an IC50 of greater than 5 μM.

T1 sequence (P50613 whole entry): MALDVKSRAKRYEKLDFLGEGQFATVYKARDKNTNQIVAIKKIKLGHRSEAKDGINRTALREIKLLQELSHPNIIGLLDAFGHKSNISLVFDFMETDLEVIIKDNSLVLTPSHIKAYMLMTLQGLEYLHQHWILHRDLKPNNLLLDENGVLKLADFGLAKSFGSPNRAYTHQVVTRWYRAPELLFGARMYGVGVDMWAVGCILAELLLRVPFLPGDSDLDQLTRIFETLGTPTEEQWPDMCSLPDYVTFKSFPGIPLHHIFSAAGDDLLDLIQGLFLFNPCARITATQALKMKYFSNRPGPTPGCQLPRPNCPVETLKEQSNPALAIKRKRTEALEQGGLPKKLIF
T1 sequence (P51946 whole entry partner): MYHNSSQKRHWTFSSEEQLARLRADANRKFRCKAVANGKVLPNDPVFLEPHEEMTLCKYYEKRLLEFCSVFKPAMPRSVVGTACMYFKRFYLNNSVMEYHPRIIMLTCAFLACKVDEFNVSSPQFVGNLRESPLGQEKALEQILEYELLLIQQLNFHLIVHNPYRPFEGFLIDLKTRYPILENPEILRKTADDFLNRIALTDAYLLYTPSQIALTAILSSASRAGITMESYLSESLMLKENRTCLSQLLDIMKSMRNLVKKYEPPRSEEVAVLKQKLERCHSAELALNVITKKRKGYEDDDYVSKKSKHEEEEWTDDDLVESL
T1 sequence (P51948 whole entry partner): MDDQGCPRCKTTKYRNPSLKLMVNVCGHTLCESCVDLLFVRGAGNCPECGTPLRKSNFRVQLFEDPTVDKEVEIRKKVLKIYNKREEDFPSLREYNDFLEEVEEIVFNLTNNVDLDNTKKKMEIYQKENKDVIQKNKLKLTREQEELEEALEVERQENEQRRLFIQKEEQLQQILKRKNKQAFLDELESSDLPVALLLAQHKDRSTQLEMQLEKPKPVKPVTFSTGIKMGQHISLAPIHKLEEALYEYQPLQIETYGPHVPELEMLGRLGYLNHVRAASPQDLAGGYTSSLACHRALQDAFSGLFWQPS

Row | Structure (SMILES) | IC50 (CDK7) [nM] | IC50 (Jurkat cells; Homo sapiens) [nM] | IC50 (Jurkat cells) [nM]
1 | CN(C)C/C=C/C(=O)NCCCCC(=O)N1CC[C@@H](Nc2ncc(Cl)c(-c3c[nH]c4ccccc34)n2)C1 [Compound 100, (E)-N-(5-((R)-3-(5-chloro-4-(1H-indol-3-yl)pyrimidin-2-ylamino)pyrrolidin-1-yl)-5-oxopentyl)-4-(dimethylamino)but-2-enamide] | < 100 | 500 to 5000 | –
2 | CN(C)CC=CC(=O)N1CCCC(CNC2CCC(Nc3ncc(Cl)c(-c4c[nH]c5ccccc45)n3)CC2)C1 (racemic) [compound 194] | 100 to 1000 | – | < 500
3 | CN(C)C/C=C/C(=O)N1CCC(C(=O)Nc2cccc(Nc3ncc(Cl)c(-c4c[nH]c5ccccc45)n3)c2)CC1 [Compound 105, (E)-N-(3-(5-chloro-4-(1H-indol-3-yl)pyrimidin-2-ylamino)phenyl)-1-(4-(dimethylamino)but-2-enoyl)piperidine-4-carboxamide] | < 100 | 500 to 5000 | –
4 | CN(C)C/C=C/C(=O)Nc1ccc(C(=O)Nc2cccc(Nc3ncc(Cl)c(-c4c[nH]c5ccccc45)n3)c2)nc1 [Compound 107, (E)-N-(3-(5-chloro-4-(1H-indol-3-yl)pyrimidin-2-ylamino)phenyl)-5-(4-(dimethylamino)but-2-enamido)picolinamide] | < 100 | 500 to 5000 | –
5 | C=CC(=O)N1CCC(C(=O)N2CC[C@H](Nc3ncc(Cl)c(-c4c[nH]c5ccccc45)n3)C2)CC1 [Compound 210, (S)-1-(4-(3-((5-chloro-4-(1H-indol-3-yl)pyrimidin-2-yl)amino)pyrrolidine-1-carbonyl)piperidin-1-yl)prop-2-en-1-One] | 100 to 1000 | 500 to 5000 | –
6 | O=C(Nc1cccc(Nc2ncc(Cl)c(-c3c[nH]c4ccccc34)n2)c1)C1CCNCC1 [Compound 1006, N-(3-(5-chloro-4-(1H-indol-3-yl)pyrimidin-2-ylamino)phenyl)piperidine-4-carboxamide] | < 100 | 500 to 5000 | –
7 | O=C(N[C@@H]1CCC[C@H](Nc2ncc(Cl)c(-c3c[nH]c4ccccc34)n2)C1)C1CCN(C(=O)/C=C/CN2CCOCC2)CC1 [Compound 202-2, N-((1R,3S)-3-((5-chloro-4-(1H-indol-3-yl)pyrimidin-2-yl)amino)cyclohexyl)-1-((E)-4-morpholinobut-2-enoyl)piperidine-4-carboxamide] | < 100 | < 500 | –
8 | C=CC(=O)N1CCC(CN2CCC(Nc3ncc(Cl)c(-c4c[nH]c5ccccc45)n3)CC2)CC1 [Compound 141, 1-(4-((4-((5-chloro-4-(1H-indol-3-yl)pyrimidin-2-yl)amino)piperidin-1-yl)methyl)piperidin-1-yl)prop-2-en-1-One] | < 100 | < 500 | –
9 | N[C@H]1CC[C@H](C(=O)Nc2cccc(Nc3ncc(Cl)c(-c4c[nH]c5ccccc45)n3)c2)CC1 [Compound 1002, trans-4-amino-N-(3-(5-chloro-4-(1H-indol-3-yl)pyrimidin-2-ylamino)phenyl) cyclohexanecarboxamide.HCl] | < 100 | 500 to 5000 | –
10 | C=CC(=O)N1CCN(C[C@@H]2CCC[C@H](Nc3ncc(Cl)c(-c4c[nH]c5ccccc45)n3)C2)CC1 [Compound 204, 1-(4-(((1R,3S)-3-((5-chloro-4-(1H-indol-3-yl)pyrimidin-2-yl)amino)cyclohexyl)methyl)-piperazin-1-yl)prop-2-en-1-One] | < 100 | < 500 | –
11 | CN(C)CC=CC(=O)N1CCC(CNC2CCC(Nc3ncc(Cl)c(-c4c[nH]c5ccccc45)n3)CC2)CC1 (centres unmarked) [compound 197] | < 100 | – | 500 to 5000
12 | C=CC(=O)NCCC(=O)N[C@H]1CCC[C@@H](Nc2ncc(Cl)c(-c3c[nH]c4ccccc34)n2)C1 [Compound 172, N-(3-((1S,3R)-3-(5-chloro-4-(1H-indol-3-yl)pyrimidin-2-ylamino)cyclohexylamino)-3-oxopropyl)acrylamide] | < 100 | < 500 | –
13 | C=CC(=O)N1CCC(O)(CN(C)[C@H]2CCC[C@@H](Nc3ncc(Cl)c(-c4c[nH]c5ccccc45)n3)C2)CC1 [Compound 225] | 100 to 1000 | – | > 5000
14 | NCCCCC(=O)N1CC[C@@H](Nc2ncc(Cl)c(-c3c[nH]c4ccccc34)n2)C1 [Compound 1000, 5-((R)-3-(5-chloro-4-(1H-indol-3-yl)pyrimidin-2-ylamino)pyrrolidin-1-yl)-5-oxopentan-1-aminium chloride] | < 100 | 500 to 5000 | –
15 | CN(C)C/C=C/C(=O)N1CCC[C@@H](C(=O)Nc2cccc(Nc3ncc(Cl)c(-c4c[nH]c5ccccc45)n3)c2)C1 [Compound 103, (3R,E)-N-(3-(5-chloro-4-(1H-indol-3-yl)pyrimidin-2-ylamino)phenyl)-1-(4-(dimethylamino)but-2-enoyl)piperidine-3-carboxamide] | < 100 | 500 to 5000 | –
16 | O=C(Nc1cccc(Nc2ncc(Cl)c(-c3c[nH]c4ccccc34)n2)c1)[C@H]1CCCNC1 [Compound 1005, (3S)—N-(3-(5-chloro-4-(1H-indol-3-yl)pyrimidin-2-ylamino)phenyl)piperidine-3-carboxamide] | < 100 | 500 to 5000 | –
17 | CN(C)C/C=C/C(=O)NCCc1cc2ccc(Nc3ncc(Cl)c(-c4c[nH]c5ccccc45)n3)cc2[nH]1 [Compound 175, (E)-N-(2-(6-(5-chloro-4-(1H-indol-3-yl)pyrimidin-2-ylamino)-1H-indol-2-yl)ethyl)-4-(dimethylamino)but-2-enamide] | < 100 | < 500 | –
18 | CN(C)C/C=C/C(=O)N[C@H]1CC[C@H](C(=O)Nc2cccc(Nc3ncc(Cl)c(-c4c[nH]c5ccccc45)n3)c2)CC1 [Compound 102, (trans,E)-N-(3-(5-chloro-4-(1H-indol-3-yl)pyrimidin-2-ylamino)phenyl)-4-(4-(dimethylamino)but-2-enamido)cyclohexanecarboxamide] | < 100 | 500 to 5000 | –
19 | C=CC(=O)N[C@H]1CCC[C@@H](Nc2ncc(Cl)c(-c3c[nH]c4ccccc34)n2)C1 [Compound 170, N-((1S,3R)-3-(5-chloro-4-(1H-indol-3-yl)pyrimidin-2-ylamino)cyclohexyl)acrylamide] | < 100 | 500 to 5000 | –
20 | Nc1ccc(C(=O)N[C@H]2CCC[C@@H](Nc3ncc(Cl)c(-c4c[nH]c5ccccc45)n3)C2)nc1 [Compound 1007, 5-amino-N-((1S,3R)-3-(5-chloro-4-(1H-indol-3-yl)pyrimidin-2-ylamino)cyclohexyl)picolinamide] | < 100 | 500 to 5000 | –
21 | CN(C)C/C=C/C(=O)N[C@H]1CC[C@@H](C(=O)Nc2cccc(Nc3ncc(Cl)c(-c4c[nH]c5ccccc45)n3)c2)CC1 [Compound 101, (Cis,E)-N-(3-(5-chloro-4-(1H-indol-3-yl)pyrimidin-2-ylamino)phenyl)-4-(4-(dimethylamino)but-2-enamido)cyclohexanecarboxamide] | < 100 | > 5000 | –
22 | CN(C)C/C=C/C(=O)N1CCC[C@H](C(=O)Nc2cccc(Nc3ncc(Cl)c(-c4c[nH]c5ccccc45)n3)c2)C1 [Compound 104, (3S,E)-N-(3-(5-chloro-4-(1H-indol-3-yl)pyrimidin-2-ylamino)phenyl)-1-(4-(dimethylamino)but-2-enoyl)piperidine-3-carboxamide] | < 100 | 500 to 5000 | –
23 | C=CC(=O)N1CCN(C(=O)N[C@H]2CCC[C@@H](Nc3ncc(Cl)c(-c4c[nH]c5ccccc45)n3)C2)CC1 [Compound 201, 4-Acryloyl-N-((1S,3R)-3-(5-chloro-4-(1H-indol-3-yl)pyrimidin-2-ylamino)cyclohexyl)piperazine-1-carboxamide] | < 100 | 500 to 5000 | –
24 | O=C(N[C@H]1CCC[C@@H](Nc2ncc(Cl)c(-c3c[nH]c4ccccc34)n2)C1)C1CCN(C(=O)/C=C/CN2CCOCC2)CC1 [Compound 202-1, N-((1S,3R)-3-((5-chloro-4-(1H-indol-3-yl)pyrimidin-2-yl)amino)cyclohexyl)-1-((E)-4-morpholinobut-2-enoyl)piperidine-4-carboxamide] | > 1000 | 500 to 5000 | –
25 | O=C(Nc1cccc(Nc2ncc(Cl)c(-c3c[nH]c4ccccc34)n2)c1)[C@@H]1CCCNC1 [Compound 1004, (3R)—N-(3-(5-chloro-4-(1H-indol-3-yl)pyrimidin-2-ylamino)phenyl)piperidine-3-carboxamide] | < 100 | 500 to 5000 | –
26 | CN(C)CC=CC(=O)N1CCC(CNC2CCC(Nc3ncc(Cl)c(-c4c[nH]c5ccccc45)n3)CC2)CC1 (centres unmarked) [compound 196] | < 100 | – | 500 to 5000
27 | O=C(Nc1cccc(Nc2ncc(Cl)c(-c3c[nH]c4ccccc34)n2)c1)C1CCCNC1 (centres unmarked) [compound 1003] | < 100 | – | 500 to 5000
28 | C=CC(=O)N1CCCC(CN[C@H]2CC[C@@H](Nc3ncc(Cl)c(-c4c[nH]c5ccccc45)n3)CC2)C1 (single isomer, unassigned) [compound 195] | 100 to 1000 | – | < 500
